Assay results published in patent US4985441A, “Anti-tumor agents” (Imperial Chemical Industries plc, priority 1988, dated 1991).
pIC50: −log10 of the molar value.

Key:
[1] = test system: liver and kidney; settings: clinical; literature references; cited from earlier work
[2] = test system: human breast, ovarian and liver cancer; settings: clinical; literature references; cited from earlier work
[3] = molecular target: T1, thymidylate synthetase (Mus musculus, UniProt P07607); experiment: Test (a): in vitro inhibition of thymidylate synthetase (partially purified from L1210 mouse leukaemia cells); type: biochemical; settings: enzyme partially purified from L1210 mouse leukaemia cells; read-out: IC50 against thymidylate synthetase [Test (a)]
T1 construct: obtained in partially purified form from L1210 mouse leukaemia cells; endogenous in cells; host or cells: L1210 mouse leukaemia cells (enzyme partially purified)
T1 sequence (P07607 whole entry): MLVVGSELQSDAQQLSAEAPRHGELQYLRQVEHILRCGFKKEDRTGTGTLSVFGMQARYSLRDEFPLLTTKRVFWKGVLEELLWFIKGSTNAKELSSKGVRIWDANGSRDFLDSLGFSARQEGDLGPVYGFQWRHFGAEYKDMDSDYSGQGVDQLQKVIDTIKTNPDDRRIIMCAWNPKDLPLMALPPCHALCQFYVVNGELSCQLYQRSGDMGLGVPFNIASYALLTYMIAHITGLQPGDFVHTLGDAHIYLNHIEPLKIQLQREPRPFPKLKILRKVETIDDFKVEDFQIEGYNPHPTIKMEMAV
From the text: (a) An in vitro assay which determines the ability of a test compound to inhibit the enzyme thymidylate synthetase. Thymidylate synthetase may be obtained in partially purified form from L1210 mouse leukaemia cells and utilised using the procedures described by Jackman et al. (Cancer Res., 1986, 46, 2810);

[4] = test system: L1210 cell line; experiment: Test (b): inhibition of growth of the leukaemia cell line L1210 in cell culture; type: cell-based; settings: Mus musculus, read-out: IC50 against the L1210 cell line [Test (b)]
From the text: Compounds of the CB3717 type are believed to act as anti-tumour agents by inhibiting the enzyme thymidylate synthetase. The anti-tumour activity of CB3717 may be assessed in vitro by determining its inhibitory effect on that enzyme, and in cell cultures by its inhibitory effect on cancer cell lines such as the mouse leukaemia cell lines L1210 and L5178Y TK-/- and the breast cancer cell line MCF-7.
(b) An assay which determines the ability of a test compound to inhibit the growth of the leukaemia cell line L1210 in cell culture. The test is similar to that described in UK Patent Specification No. 2065653B;

SMILES	toxicity in humans [1]	activity against human breast, ovarian and liver cancer [2]	pIC50 [3]	pIC50 [4]
C#CCN(Cc1ccc2nc(N)[nH]c(=O)c2c1)c1ccc(C(=O)N[C@@H](CCC(=O)O)C(=O)O)cc1 [CB3717]	symptoms of toxicity in humans, particularly in relation to the liver and kidney	promising activity against human breast, ovarian and liver cancer	–	–
C#CCN(Cc1ccc2nc(C)nc(O)c2c1)c1ccc(C(=O)NCCC)cc1 [p-[N-(3,4-dihydro-2-methyl-4-oxoquinazolin-6-ylmethyl)-N-(prop-2-ynyl)amino]-N-propylbenzamide]	–	–	5.74	5.15
